Measured values as given in patent US9012499B2, “Pharmaceutical composition comprising oseltamivir phosphate” (Chugai Seiyaku Kabushiki Kaisha, priority 2006, dated 2015).

What was measured:
[1] = Color development of sugars and sugar alcohols mixed with oseltamivir phosphate (Example 1); type: physicochemical; settings: nine parts by weight of test sample and one part of oseltamivir phosphate; for Coloring by mixing with sugars and sugar alcohols, rank of color difference ΔE*, 40° C., 75% RH, one month (open): bottle open; for Coloring by mixing with sugars and sugar alcohols, rank of color difference ΔE*, 60° C. for 2 weeks (sealed): sealed bottle
Procedure: Various samples of sugars and sugar alcohols were mixed with oseltamivir phosphate and the color development was confirmed by the following method. Nine parts by weight of a test sample and one part by weight of oseltamivir phosphate were mixed in a mortar, and the mixture was transferred to a No. 1 standard brown glass bottle (volume: 14 ml) and the bottle was tightly sealed by a polyethylene middle stopper and a polypropylene screw cap. The color of the mixture immediately after mixing was measured by a color difference meter. The mixture was kept in the following two conditions: i) 2 weeks in a 60° C. incubator, or ii) one month in a 40° C. incubator at 75% RH while the bottle was open. Thereafter, the color of the mixture was measured. The color difference before and after the storage ΔE*(CIE L*a*b*) was measured. The measurement of color difference was carried out according to JIS Z-8722, based on 0-45° rear spectrophotometric method using a spectrophotometric color difference meter (SE-2000) (Nippon Denshoku Ltd.).
The A, B and C rank in the table represents ΔE*≦2.5, 2.5<ΔE*≦5.0 and ΔE*>5.0, respectively.

[2] = Color change of wet-granulated sugar alcohol/oseltamivir phosphate formulation after storage (Example 2); type: physicochemical; settings: 27 g additive + 3 g oseltamivir phosphate, wet granulation with water; 60° C. for 4 weeks under a tight seal
Procedure: Twenty seven grams of a sugar alcohol and 3 g of oseltamivir phosphate were mixed in a mortar, and then kneaded by adding 1 mL of water to carry out the wet granulation. The mixture was dried in a 50° C. constant temperature drying oven for 3 hr to reduce the water content of the formulation to 1% by weight or less. The formulation was kept at 60° C. for 4 weeks under a tight seal and the change of color before and after the storage was measured by a color difference meter.

[3] = Equilibrium water content of sugars and sugar alcohols (DVS-1); type: physicochemical; settings: 25° C., relative humidity 70%
Procedure: Sugars and sugar alcohols (excipients) used in the pharmaceutical composition of the present invention have a characteristic that their equilibrium water content is 1% by weight or less at 25° C. and at 70% relative humidity. That is, the equilibrium water content may be obtained by leaving the samples (sugars or sugar alcohols) in the air that has been held in the predetermined condition of 25° C. and 70% relative humidity for a long time, and then by measuring when the water content in the samples become constant.
(1) Method for Measuring Equilibrium Water Content
Equilibrium water content (25° C., relative humidity 70%) of sugars and sugar alcohols can be measured by the method using a DVS-1 (Surface Measurement Systems Ltd.). The condition for measurement is as follows.
Quantity of samples: 50 to 100 mg (intending to scale 75 mg)
Measurement temperature: 25±1° C.
Setting range of relative humidity: 0 to 100% RH
Measurement step of relative humidity: up to 10%
Hold time: If change of the weight is less than 0.02%, the measurement enters next step, but the change is not stable, the step lasts up to 120 min.

[4] = tested on: neuraminidase of influenza virus; settings: Patent Document 1 (WO1998/007685); cited from earlier work

Row | Compound | Coloring by mixing with sugars and sugar alcohols, rank of color difference ΔE*, 40° C., 75% RH, one month (open) [1] | Coloring by mixing with sugars and sugar alcohols, rank of color difference ΔE*, 60° C. for 2 weeks (sealed) [1] | Color difference ΔE* [2] | Equilibrium water content [3] | Equilibrium water content ([3]; listed as erythritol) [%] | Inhibitory activity against neuraminidase of influenza virus [4]
1 | OC[C@H]1O[C@H](O[C@H]2[C@H](O)[C@@H](O)C(O)O[C@@H]2CO)[C@H](O)[C@@H](O)[C@@H]1O (mixture of isomers) [Maltose] | C (ΔE*>5.0) | C (ΔE*>5.0) |  |  |  | 
2 | OC[C@@H](O)[C@@H](O)[C@H](O)[C@H](O)CO [D-Mannitol] | A (ΔE*≦2.5) | A (ΔE*≦2.5) | 3.4 |  |  | 
3 | OC[C@@H](O)[C@@H](O)[C@H](O)[C@@H](O)CO [D-sorbitol 1, D-sorbitol] |  |  | 14.6 |  |  | 
4 | OC[C@@H](O)[C@@H](O)[C@H](O)[C@@H](O)CO [D-sorbitol 2, D-sorbitol] |  |  | 11.2 |  |  | 
5 | OC[C@@H](O)[C@@H](O)[C@H](O)[C@@H](O)CO [D-sorbitol] | C (ΔE*>5.0) | C (ΔE*>5.0) |  | 1.7% |  | 
6 | OC[C@@H](O)[C@@H](O)CO [Erythritol] | B (2.5<ΔE*≦5.0) | A (ΔE*≦2.5) | 4.7 | *Equilibrium water content (25° C., relative humidity 70%) is 0.1%, the contents of glucose and mannose as impurities are <0.001% and 0.001%, respectively. | 0.1 | 
7 | CCOC(=O)C1=C[C@@H](OC(CC)CC)[C@H](NC(C)=O)[C@@H](N)C1.O=P(O)(O)O [Oseltamivir phosphate, (−)-ethyl (3R,4R,5S)-4-acetamido-5-amino-3-(1-ethylpropoxy)-cyclohex-1-ene-1-carboxylate monophosphate] | A (ΔE*≦2.5) | A (ΔE*≦2.5) |  |  |  | potent inhibitory activity
8 | OC[C@H]1O[C@@](CO)(O[C@H]2O[C@H](CO)[C@@H](O)[C@H](O)[C@H]2O)[C@@H](O)[C@@H]1O [Sucrose] | B (2.5<ΔE*≦5.0) | A (ΔE*≦2.5) |  |  |  | 
9 | OC[C@@H](O)[C@H](O)[C@@H](O)CO [Xylitol] | C (ΔE*>5.0) | B (2.5<ΔE*≦5.0) |  |  |  | 
